Values quoted from earlier work as cited in publication PMC7357848 (Journal of Chemical Information and Modeling, 2020).

Tested on: hERG
Conditions: IC50 with SP over IC50 with Protocol-O; ref 5 (Yao et al. 2005)

In the case of BeKm-1, the IC50 ratio is given as 10.3.
